Experimental data as given in patent US20160279095A1, “USE OF NUTRITIONAL COMPOSITIONS INCLUDING NATURAL VITAMIN E, AND POLYUNSATURATED FATTY ACID” (ABBOTT LABORATORIES, priority 2013, published 2016).

Tested on: Primary cortical neurons
Test: DHA peroxidation in primary cortical neurons, MDA levels measured by LC-MS
Assay type: cell-based, Sprague-Dawley rat
Details: for MDA concentration (DHA peroxidation): by LCMS/MS
Method: Primary cortical neurons from postnatal day 3-5 (P3-P5) Sprague-Dawley rat pup's brain were pretreated with/without natural vitamin E in the form of RRR-a-tocopherol (15 μM or 45 μM), and/or lutein (0.32 nM or 0.5 nM) individually and in combination for 12 hours. (Note that μM is used to refer to a micromolar concentration and nM is used to refer to a nanomolar concentration and concentrations refer to those reached in the test tubes containing the cortical neurons.) After 12 hours DHA (90 μM) was added for an additional 12 hours. After 12 hours samples were washed in PS and neurons were lysed. Peroxides generated from DHA and incorporated into the neuronal cell membrane were assessed by measuring the MDA levels using liquid chromatography-mass spectometry (LC-MS) method.

CC/C=C\C/C=C\C/C=C\C/C=C\C/C=C\C/C=C\CCC(=O)O [DHA, docosahexaenoic acid]
MDA concentration (DHA peroxidation) (DHA 90 μM for 12 hours, without either RRR alpha tocopherol or lutein): about 110

Cc1c(C)c2c(c(C)c1O)CC[C@@](C)(CCC[C@H](C)CCC[C@H](C)CCCC(C)C)O2 [RRR alpha tocopherol, RRR-alpha tocopherol]
MDA concentration (DHA peroxidation) (15 μM RRR alpha tocopherol pretreatment 12 hours, then DHA 90 μM 12 hours): about 75% | MDA concentration (DHA peroxidation) (45 μM RRR alpha tocopherol pretreatment 12 hours, then DHA 90 μM 12 hours, p<0.001): about 57%

CC1=C[C@H](O)CC(C)(C)[C@H]1/C=C/C(C)=C/C=C/C(C)=C/C=C/C=C(C)/C=C/C=C(C)/C=C/C1=C(C)C[C@@H](O)CC1(C)C [lutein]
effect on retarding DHA peroxidation (lutein alone, without RRR alpha tocopherol, then DHA 90 μM): essentially no effect
